Reference: paper PMC11053447, “Human ABC and SLC Transporters: The Culprit Responsible for Unspecific PSMA-617 Uptake?” (Pharmaceuticals, 2024)
Each block holds one compound with its values, some of them ahead of it.

Legend:
human OAT1 = molecular target: T1, human OAT1 (Homo sapiens, UniProt Q4U2R8); experiment: SLC transporter substrate assay, HEK293-OAT1-LV vs control HEK293-Mock-B-LV cells; settings: 2 min
T1 sequence (Q4U2R8 1-563): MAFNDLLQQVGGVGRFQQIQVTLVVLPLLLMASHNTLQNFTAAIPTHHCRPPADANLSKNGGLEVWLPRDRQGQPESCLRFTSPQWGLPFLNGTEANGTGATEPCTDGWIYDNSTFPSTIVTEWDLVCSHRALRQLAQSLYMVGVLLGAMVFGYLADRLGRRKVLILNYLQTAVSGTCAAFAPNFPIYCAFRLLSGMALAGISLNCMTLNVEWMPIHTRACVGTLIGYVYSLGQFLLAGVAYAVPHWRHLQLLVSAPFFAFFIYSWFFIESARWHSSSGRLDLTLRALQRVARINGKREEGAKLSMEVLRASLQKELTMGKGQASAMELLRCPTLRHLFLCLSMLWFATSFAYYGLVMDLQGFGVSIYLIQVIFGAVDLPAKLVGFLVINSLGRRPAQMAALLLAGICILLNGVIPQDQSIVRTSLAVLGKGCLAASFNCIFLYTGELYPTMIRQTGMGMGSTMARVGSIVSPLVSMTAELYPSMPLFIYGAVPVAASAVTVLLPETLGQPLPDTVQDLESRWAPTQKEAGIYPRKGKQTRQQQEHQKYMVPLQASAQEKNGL

MRP1 = MRP1 (Homo sapiens, UniProt P33527)
MRP1, sequence (P33527 whole entry): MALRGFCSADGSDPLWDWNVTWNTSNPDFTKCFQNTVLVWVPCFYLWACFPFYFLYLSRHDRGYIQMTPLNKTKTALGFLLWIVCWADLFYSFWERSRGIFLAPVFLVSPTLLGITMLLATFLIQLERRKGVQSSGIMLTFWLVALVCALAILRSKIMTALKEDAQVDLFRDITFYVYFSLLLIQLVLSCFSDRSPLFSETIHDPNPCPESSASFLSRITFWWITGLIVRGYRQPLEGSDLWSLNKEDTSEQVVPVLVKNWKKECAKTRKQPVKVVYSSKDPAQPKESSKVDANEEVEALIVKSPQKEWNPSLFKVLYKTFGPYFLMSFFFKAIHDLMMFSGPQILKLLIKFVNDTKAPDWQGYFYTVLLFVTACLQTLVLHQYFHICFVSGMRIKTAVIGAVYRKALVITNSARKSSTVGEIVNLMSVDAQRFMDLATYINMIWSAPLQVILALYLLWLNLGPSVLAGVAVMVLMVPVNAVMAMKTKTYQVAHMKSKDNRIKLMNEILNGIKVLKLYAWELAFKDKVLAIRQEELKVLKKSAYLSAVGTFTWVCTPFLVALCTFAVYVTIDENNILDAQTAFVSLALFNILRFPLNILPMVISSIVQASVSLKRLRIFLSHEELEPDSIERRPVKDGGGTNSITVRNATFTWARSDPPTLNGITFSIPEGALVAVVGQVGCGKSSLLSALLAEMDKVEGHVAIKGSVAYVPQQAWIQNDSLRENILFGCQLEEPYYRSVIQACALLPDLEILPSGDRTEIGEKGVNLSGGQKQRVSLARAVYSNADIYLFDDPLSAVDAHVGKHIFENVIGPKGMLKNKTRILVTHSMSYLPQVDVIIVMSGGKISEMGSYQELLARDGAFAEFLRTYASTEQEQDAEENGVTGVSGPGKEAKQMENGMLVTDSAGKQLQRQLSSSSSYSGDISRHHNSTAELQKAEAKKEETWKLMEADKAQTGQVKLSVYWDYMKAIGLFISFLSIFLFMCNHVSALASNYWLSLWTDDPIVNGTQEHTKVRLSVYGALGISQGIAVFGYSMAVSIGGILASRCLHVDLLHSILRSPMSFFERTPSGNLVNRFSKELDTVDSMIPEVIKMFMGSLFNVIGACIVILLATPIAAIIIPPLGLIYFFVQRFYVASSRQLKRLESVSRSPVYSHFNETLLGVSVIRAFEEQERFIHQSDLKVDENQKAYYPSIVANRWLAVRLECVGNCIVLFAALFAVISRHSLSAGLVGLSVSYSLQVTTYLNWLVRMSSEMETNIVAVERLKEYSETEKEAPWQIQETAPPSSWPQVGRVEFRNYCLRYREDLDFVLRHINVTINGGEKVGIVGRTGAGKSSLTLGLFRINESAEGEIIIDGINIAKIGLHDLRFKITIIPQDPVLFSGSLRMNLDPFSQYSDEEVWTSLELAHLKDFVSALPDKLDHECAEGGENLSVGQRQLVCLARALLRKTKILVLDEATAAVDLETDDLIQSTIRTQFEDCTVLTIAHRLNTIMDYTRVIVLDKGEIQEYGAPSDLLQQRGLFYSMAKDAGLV
Method: The incubations were carried out in the presence of 4 mM ATP or AMP to distinguish between transporter-mediated uptake and passive diffusion into the vesicles. […] Afterwards, the reaction mixtures were pre-incubated for 15 min at 37 °C for MRP1 or at 32 °C for BCRP, MDR1 and MRP4, respectively. The transporter assay was initiated through the addition of 25 μL of pre-warmed 12 mM MgATP (or 12 mM AMP in assay buffer as a background control). The reactions were quenched through the addition of 200 μL of ice-cold washing buffer and immediate filtration via glass fiber filters mounted onto a 96-well plate (filter plate). The filters were washed (5 × 200 μL of ice-cold washing buffer) and dried, and the amount of probe substrate inside the filtered vesicles was determined using LSC. The experiments were conducted in triplicate.
Calculation of ATP-dependent transport and inhibition for vesicular transport inhibition
For all wells the amount of the translocated probe substrate was determined in counts per minute (cpm).
ATP-dependent transport (pmol/mg protein/min) is calculated for each concentration using the following
𝐴𝑐𝑐𝐴𝑇𝑃 ∙ 𝑉 ∙ 𝐶𝐶 𝐴𝑐𝑐𝐴𝑀𝑃 ∙𝑉 ∙𝐶𝐶
𝐴𝑇𝑃 − 𝑑𝑒𝑝𝑒𝑛𝑑𝑒𝑛𝑡 𝑎𝑐𝑐𝑢𝑚𝑢𝑙𝑎𝑡𝑖𝑜𝑛 = ( 𝑇𝐶𝑃𝑀 𝑠𝑢𝑏) − ( 𝑇𝐶𝑃𝑀 𝑠𝑢𝑏)
• AccATP: probe substrate accumulation with ATP (cpm)
• AccAMP: probe substrate accumulation with AMP (cpm)
• Tcpm: cpm in dosing solution V: volume per well (µL)
• CCsub: probe substrate concentration (µM)
• Prot: total protein per well (mg)
• t: incubation time (min)
Relative ATP-dependent transport (%) values were calculated using the following equation:
𝑅𝑒𝑙𝑎𝑡𝑖𝑣𝑒 𝐴𝑇𝑃 − 𝑑𝑒𝑝𝑒𝑛𝑑𝑒𝑛𝑡 𝑡𝑟𝑎𝑛𝑠𝑝𝑜𝑟𝑡 (%) = 𝐴 − 𝐵 ∙ 100
• A: amount of translocated substrate in the presence of test substance (TS) and ATP
• B: amount of translocated substrate in the presence of test substance (TS) and AMP
• C: amount of translocated substrate in the presence of solvent and ATP
• D: amount of translocated substrate in the presence of solvent and AMP
Relative inhibition (%) is calculated by setting probe substrate transport in the absence of test substance as
𝑅𝑒𝑙𝑎𝑡𝑖𝑣𝑒 𝑖𝑛ℎ𝑖𝑏𝑖𝑡𝑖𝑜𝑛 (%) = 𝐴𝑐𝑐𝑆𝑝𝑒𝑐𝑖𝑓𝑖𝑐,𝑥 ∙100
• Accspecific,x: transporter specific accumulation for a given sample (pmol/mg/min)
• Accspecific,vehicle: transporter specific accumulation for a solvent control (pmol/mg/min)

human OAT4 = molecular target: T2, human OAT4 (Homo sapiens, UniProt Q9NSA0); experiment: SLC transporter substrate assay, HEK293-OAT4-LV vs control HEK293-Mock-LV cells; settings: 1 min
T2 sequence (Q9NSA0 1-550): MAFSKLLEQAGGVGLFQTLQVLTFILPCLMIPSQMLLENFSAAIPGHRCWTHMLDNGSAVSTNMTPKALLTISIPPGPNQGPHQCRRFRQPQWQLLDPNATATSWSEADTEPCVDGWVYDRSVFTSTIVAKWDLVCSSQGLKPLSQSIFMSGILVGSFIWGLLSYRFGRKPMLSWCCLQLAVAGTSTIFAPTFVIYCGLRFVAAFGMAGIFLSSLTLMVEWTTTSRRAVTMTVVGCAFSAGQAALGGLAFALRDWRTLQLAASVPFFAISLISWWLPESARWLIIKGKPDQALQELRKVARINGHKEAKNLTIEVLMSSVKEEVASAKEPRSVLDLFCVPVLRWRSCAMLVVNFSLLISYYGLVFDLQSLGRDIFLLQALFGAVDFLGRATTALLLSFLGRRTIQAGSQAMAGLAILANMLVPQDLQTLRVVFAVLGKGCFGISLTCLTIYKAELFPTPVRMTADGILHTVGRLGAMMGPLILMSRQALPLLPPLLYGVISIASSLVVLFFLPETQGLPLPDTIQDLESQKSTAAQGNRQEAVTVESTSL

[1] = positive control: Tenofovir 5 µM + Probenecid 300 µM
[2] = positive control: Tenofovir 5 µM
[3] = positive control inhibitor 200.0 µM, E217βG probe, mean (n=3) ± SD

- Accumulation in OAT1 transporter expressing cells (human OAT1; [1]): 372.67 cpm
- Accumulation in control cells (human OAT1; [1]): 77.00 cpm
- Accumulation, active transport (human OAT1; [1]): 295.67 cpm
- Fold accumulation (human OAT1; [1]): 4.84
- Accumulation in OAT1 transporter expressing cells (human OAT1; [2]): 7739.67 cpm
- Accumulation in control cells (human OAT1; [2]): 85.00 cpm
- Accumulation, active transport (human OAT1; [2]): 7654.67 cpm
- Fold accumulation (human OAT1; [2]): 91.05
Compound: C[C@H](Cn1cnc2c(N)ncnc21)OCP(=O)(O)O [Tenofovir, tenofovir, reference compound]

Compound: CCc1oc2ccccc2c1C(=O)c1cc(Br)c(O)c(Br)c1 [Benzbromarone, benzbromarone, reference compound]
- inhibition at 3 min, 200 µM (MRP1; human, membrane vesicles from Sf9 cells transfected with human MRP1, […], 0.2 µM): 104%
- ATP dependent transport (MRP1; [3]): -26.33 ± 10.19 pmol/mg/min
- Relative ATP dependent transport (MRP1; [3]): -3.87 ± 1.50 % of control

Compound: C[C@]12CC[C@@H]3c4ccc(OS(=O)(=O)[O-])cc4CC[C@H]3[C@@H]1CCC2=O.[Na+] [E3S, estrone-3-sulfate sodium salt, reference compound]
- Fold accumulation (human OAT4; positive control: E3S 1 µM + Benzbromarone 300 µM): 5.12
- Fold accumulation (human OAT4; positive control: E3S 1 µM): 24.16
